Values of other authors in patent US20220370332A1, “PRODUCT FOR DYEING KERATINOUS MATERIAL, CONTAINING AMINOSILICONE, A CHROMOPHORIC COMPOUND, PRESERVATIVE AND ETHOXYLATED FATTY ALCOHOL” (Henkel AG & Co. KGaA, priority 2019, published 2022).

Details: 25° C.

SMILES	solubility in water
O=S(=O)([O-])c1ccc(N=Nc2c(O)ccc3ccccc23)cc1.[Na+] [Acid Orange 7, sodium salt of 4-[(2-hydroxy-1-naphthyl)azo]benzene sulphonate]	more than 7 g/L
O=C([O-])c1c(Cl)c(Cl)c(Cl)c(Cl)c1-c1c2c(Br)cc(=O)c(Br)c-2oc2c(Br)c(O)cc(Br)c12.O=C([O-])c1c(Cl)c(Cl)c(Cl)c(Cl)c1-c1c2c(Br)cc(=O)c(Br)c-2oc2c(Br)c(O)cc(Br)c12.[Na+].[Na+] [Acid Red 92, disodium salt of 3,4,5,6-tetrachloro-2-(1,4,5,8-tetrabromo-6-hydroxy-3-oxoxanthen-9-yl)benzoic acid]	greater than 10 g/L

Next, values leading:

solubility in water	SMILES
more than 20 % by weight	CCN(Cc1cccc(S(=O)(=O)[O-])c1)c1ccc(C(=C2C=CC(=[N+](CC)Cc3cccc(S(=O)(=O)[O-])c3)C=C2)c2ccccc2S(=O)(=O)[O-])cc1.[Na+].[Na+] [Acid Blue 9]
2500 µg/mL	Nc1cc(S(=O)(=O)[O-])cc2cc(S(=O)(=O)[O-])c(N=Nc3ccccc3)c(O)c12.[Na+].[Na+] [Acid Red 33, diantrium salt of 5-amino-4-hydroxy-3-(phenylazo)-naphthalene-2,7-disulphonate]
highly soluble in water	O=C([O-])C1=NN(c2ccc(S(=O)(=O)[O-])cc2)C(=O)C1N=Nc1ccc(S(=O)(=O)[O-])cc1.[Na+].[Na+].[Na+] (centres unmarked) [Acid Yellow 23, trisodium salt of 4,5-dihydro-5-oxo-1-(4-sulfophenyl)-4-((4-sulfophenyl)azo)-1H-pyrazole-3-carboxylic acid]
